Data on ten compounds can be found in publication PMC10666548, “Identification of the bacterial metabolite aerugine as potential trigger of human dopaminergic neurodegeneration” (Environment international, 2023).

The subject of data set [1] is aerugine (10 μM) cytotoxicity in LUHMES cultures (d6). In words: Modulation of aerugine-induced neurodegeneration by mechanistic inhibitors. The data set is classed as cell-based, human. Particulars: 24 h; for prevention of aerugine-induced cell death (viability) / maximal prevention of aerugine neurotoxicity: inhibitor 15 min prior to 10 μM aerugine. The protocol:
(§1) For toxicity assessment of mature LUHMES neurons, precursor cells were pre-differentiated for 2 days in cell culture flasks pre-coated as described above and differentiation medium. Then, 45′000 cells per well were seeded in differentiation medium into standard 96-well plates pre-coated as described above. They were incubated at 37 °C and 5% CO2 for 4 days before compound treatment. At this time, cells were >99% post-mitotic and had established an extensive neurite network ([Scholz et al., 2011]) The cell viability was assessed via the Calcein/Hoechst readout, the LDH assay and the resazurin reduction assay.
(§2) Neurite area (NA) and viability (V) were assessed as described previously ([Stiegler et al., 2011]). In brief, cells were stained with 1 μM calcein-AM and 1 μg/ml H-33342 for 30 min at 37 °C and 5% CO2. Image acquisition was performed using an Array-Scan VTI HCS Reader (Cellomics, PA, USA) equipped with a Hamamatsu ORCA-ER camera. 10 fields per well were imaged with 2 channels at 20x magnification (2×2 pixel binning). Excitation/emission wavelengths of 365 ± 50/535 ± 45 nm were used for Hoechst detection in channel 1 and 474 ± 40/535 ± 45 nm were used for calcein detection in channel 2.
Fig. 4. Modulation of aerugine-induced neurodegeneration by mechanistic inhibitors. LUHMES cultures (d6) were used under standard conditions to assess the cytotoxicity of aerugine (10 μM) in the presence of various agents known to interfere with cell death pathways. A Treatment scheme: the respective inhibitors were applied 15 min prior to aerugine treatment (10 μM), and the viability was determined by high-content imaging after 24 h. B Inhibitors were used at different concentrations, as indicated. The main biochemical activity of each agent is indicated in brackets. Data are means ± SEM of at least three biological replicates with 3 technical replicates each. DFP = deferiprone; DFO = deferoxamine; qVD = caspase inhibitor; RIPK = receptor-interacting serine/threonine-protein kinase. For statistical analysis, the lowest concentration of inhibitor that produced the maximal protective effect (red) was compared to the treatment with aerugine alone using a two-tailed t-test (*: p = 0.01). C Exemplary pictures of LUHMES cultures after 24 h treatment: negative control (=DMSO), positive control (=10 μM aerugine), DFP (=20 μM DFP + 10 μM aerugine) and qVD (=5 μM qVD + 10 μM aerugine). Arrows indicate cells with a broken cell membrane (calcein-negative) and condensed nuclei (small H-33342-positive area). Arrow heads indicate disintegrating neurites (chains of calcein-positive blebs).

Data set [2] concerns human dopaminergic neurons (LUHMES cells). In words: Cytotoxicity to mature (d6) LUHMES neurons, calcein-AM & H-33342 high content imaging. It counts as cell-based. Particulars: d6 LUHMES; for cytotoxicity to DAergic neurons (viability): 24 h (24 h and 48 h for purified compounds). The protocol: as §1, §2
Nuclei were identified in channel 1 depending on intensity, area, size and shape. Their outlines were expanded by 3.2 μm to define a virtual cell soma area (VCSA), which was bigger than the average cell soma to prevent false positive NAs. All calcein-positive pixels were defined as viable cellular structures (VCSs). The NA was automatically calculated by excluding the VCSAs from the VCSs. Furthermore all nuclei co-localizing with VCSs were defined as alive.

Each structure is given as a SMILES string. “Also recorded” adds a separate entry of the source.

For the compound `N[C@@H](Cc1ccc(O)c(I)c1)C(=O)O` [3-iodo-tyrosine], the “prevention of aerugine-induced cell death (viability)” value (from here on “prevention … (viability)”) in data set [1] is “had no effect at all”.
As to `O=C(O)C1CSC(c2ccccc2O)=N1` (stereo not shown) [DHAA, Dihydroaeruginoic acid, reference compound], in data set [2], the “cytotoxicity to DAergic neurons (viability)” value (shortened to “cytotoxicity”) is “all toxicity was lost”.
On to `O=Cc1csc(-c2ccccc2O)n1` [IQS, aeruginealdehyde], for which the “cytotoxicity” value in data set [2] was “about equipotent with aeruginol”. Besides, in data set [2] (within 24 h), the “concentration range killing DAergic neurons” value was 10 to 25 µM.
Consider `OCc1csc(-c2ccccc2O)n1` [aeruginol], for which the “cytotoxicity” value in data set [2] is “cytotoxic to DAergic neurons in a time- and concentration-dependent manner”.
As to `N[C@@H](CS)C(=O)O` [cysteine], the “maximal prevention of aerugine neurotoxicity” value in data set [1] is reported as 60–90%.
As for `O=CC1CSC(c2ccccc2O)=N1` (stereo not shown) [dhIQS, dihydro-aeruginealdehyde], in data set [2], the “cytotoxicity” value is “all toxicity was lost”.
Regarding `O=c1c2ccccc2[se]n1-c1ccccc1` [ebselen], the “maximal prevention of aerugine neurotoxicity” value in data set [1] was 60–90%.
Same read-out and setting: the result for `CCOC(=O)c1ccc(NC2CCCCC2)c(N)c1` [ferrostatin] reads 60–90%.
Consider `CN1C(=O)C(Cc2c[nH]c3ccccc23)NC1=S` (stereo not shown) [necrostatin-1], for which the “prevention … (viability)” value in data set [1] is given as “only slightly attenuated cell death”.
`CC(C)[C@H](NC(=O)c1ccc2ccccc2n1)C(=O)N[C@@H](CC(=O)O)C(=O)COc1c(F)cccc1F` [qVD]: in data set [1] (10 μM aerugine), the “neurite structure in presence of inhibitor” value was “damage to the neurites still occurred and lost”; the “optimal concentrations for prevention of cell death” value was in the range of 2 to 4 µM. Moreover, in data set [1], the “prevention … (viability)” value is listed as “completely prevented; also recorded: prevented cell death”.
